Laboratory results from ChEMBL document CHEMBL6127060, “Bioisosteric replacement of the carboxylic acid group in Hepatitis-C virus NS5B thumb site II inhibitors: phenylalanine derivatives” (Eur J Med Chem, 2024).

How the values were obtained:
[1] = target: Hepatitis C virus NS5B RNA-dependent RNA polymerase (Hepatitis C virus, UniProt Q8JXU8); experiment: Inhibition of Hepatitis C virus NS5B polymerase; set-up: species or system Hepacivirus hominis
[2] = Cytotoxicity against human Huh-7 cells assessed as cell viability; format: toxicity, cell-based
[3] = tested on: Hepatitis C virus; experiment: Antiviral activity against Hepatitis C virus genotype 1b infected in human Huh-7 cells assessed as inhibition of viral growth incubated for 3 days; format: functional, organism-based, Hepacivirus hominis; conditions: Huh-7, 72 h
[4] = tested on: Hepatitis C virus; experiment: Antiviral activity against Hepatitis C virus; format: functional, organism-based, Hepacivirus hominis

Hepatitis C virus NS5B RNA-dependent RNA polymerase, sequence (Q8JXU8 whole entry): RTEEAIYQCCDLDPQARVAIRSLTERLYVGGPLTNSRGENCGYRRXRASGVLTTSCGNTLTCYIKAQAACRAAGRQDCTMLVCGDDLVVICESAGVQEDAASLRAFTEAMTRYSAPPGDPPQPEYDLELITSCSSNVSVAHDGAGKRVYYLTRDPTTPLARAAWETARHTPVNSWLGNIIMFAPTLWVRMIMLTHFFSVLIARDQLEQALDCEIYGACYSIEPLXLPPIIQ

Row | Compound | IC50 [1] [µM] | CC50 [2] [µM] | EC50 [3] [µM] | EC50 [4] [µM]
1 | O=C(O)[C@H](Cc1ccccc1)N(Cc1cccc([N+](=O)[O-])c1)C(=O)c1ccc(Cl)cc1Cl | 0.7 | – | – | –
2 | O=C(O)[C@H](Cc1ccccc1)N(Cc1cccc(C(F)(F)F)c1)C(=O)c1ccc(Cl)cc1Cl | 1.7 | – | – | –
3 | N#Cc1cccc(CN(C(=O)c2ccc(Cl)cc2Cl)[C@@H](Cc2ccccc2)C(=O)O)c1 | 0.8 | – | – | –
4 | N/C(=N\O)C(Cc1ccccc1)N(Cc1cccc(F)c1)C(=O)c1ccc(Cl)cc1Cl (stereo not given) | – | > 50 | > 50 | –
5 | O=C(c1ccc(Cl)cc1Cl)N(Cc1cccc(C(F)(F)F)c1)C(Cc1ccccc1)c1noc(=O)[nH]1 (stereo not given) | – | 49.2 | > 50 | –
6 | N/C(=N\O)C(Cc1ccccc1)N(Cc1cccc([N+](=O)[O-])c1)C(=O)c1ccc(Cl)cc1Cl (stereo not given) | – | 18.2 | 11.3 | –
7 | O=C(c1ccc(Cl)cc1Cl)N(Cc1cccc(Br)c1)C(Cc1ccccc1)c1noc(=O)[nH]1 (stereo not given) | – | > 50 | > 50 | –
8 | N#CC(Cc1ccccc1)N(Cc1cccc(Br)c1)C(=O)c1ccc(Cl)cc1Cl (stereo not given) | – | > 50 | > 50 | –
9 | CC(C)(C)C(=O)OCn1c(C(Cc2ccccc2)N(Cc2cccc([N+](=O)[O-])c2)C(=O)c2ccc(Cl)cc2Cl)noc1=S (stereo not given) | – | > 50 | > 50 | –
10 | O=C(c1ccc(Cl)cc1Cl)N(Cc1cccc(F)c1)C(Cc1ccccc1)c1noc(=O)[nH]1 (stereo not given) | – | > 50 | > 50 | –
11 | O=C(c1ccc(Cl)cc1Cl)N(Cc1cccc(C(F)(F)F)c1)C(Cc1ccccc1)c1noc(=S)[nH]1 (stereo not given) | – | > 50 | > 50 | –
12 | Cn1c(C(Cc2ccccc2)N(Cc2cccc(C(F)(F)F)c2)C(=O)c2ccc(Cl)cc2Cl)noc1=S (stereo not given) | – | > 50 | 8.09 | –
13 | O=C(c1ccc(Cl)cc1Cl)N(Cc1cccc([N+](=O)[O-])c1)C(Cc1ccccc1)c1noc(=O)[nH]1 (stereo not given) | – | > 50 | > 50 | –
14 | CC1CCC(C(=O)N(C)c2ccc(Oc3ccccc3C(F)(F)F)cc2C(=O)O)CC1 (stereo not given) | 0.2 | – | – | 1.1
15 | N#CC(Cc1ccccc1)N(Cc1cccc([N+](=O)[O-])c1)C(=O)c1ccc(Cl)cc1Cl (stereo not given) | – | > 50 | 5.19 | –
16 | CC(C)(C)C(=O)OCn1c(C(Cc2ccccc2)N(Cc2cccc(C(F)(F)F)c2)C(=O)c2ccc(Cl)cc2Cl)noc1=S (stereo not given) | – | > 50 | > 50 | –
17 | O=C(c1ccc(Cl)cc1Cl)N(Cc1cccc([N+](=O)[O-])c1)C(Cc1ccccc1)c1noc(=S)[nH]1 (stereo not given) | – | > 50 | > 50 | –
18 | N#CC(Cc1ccccc1)N(Cc1cccc(F)c1)C(=O)c1ccc(Cl)cc1Cl (stereo not given) | – | > 50 | 3.72 | –
19 | N#CC(Cc1ccccc1)N(Cc1cccc(C(F)(F)F)c1)C(=O)c1ccc(Cl)cc1Cl (stereo not given) | – | > 50 | > 50 | –
20 | N/C(=N\O)C(Cc1ccccc1)N(Cc1cccc(Br)c1)C(=O)c1ccc(Cl)cc1Cl (stereo not given) | – | 16.1 | 6.36 | –
21 | O=C(c1ccc(Cl)cc1Cl)N(Cc1cccc(Br)c1)C(Cc1ccccc1)c1noc(=S)[nH]1 (stereo not given) | – | > 50 | > 50 | –
22 | O=C(c1ccc(Cl)cc1Cl)N(Cc1cccc(F)c1)C(Cc1ccccc1)c1noc(=S)[nH]1 (stereo not given) | – | > 50 | > 50 | –
23 | N/C(=N\O)C(Cc1ccccc1)N(Cc1cccc(C(F)(F)F)c1)C(=O)c1ccc(Cl)cc1Cl (stereo not given) | – | 11 | 3.91 | –
24 | CC1=CC[C@H](C(=O)N(c2cc(C#CC(C)(C)C)sc2C(=O)O)[C@H]2CC[C@](O)(CO[C@H]3CCOC3)CC2)CC1 [RADALBUVIR] | – | > 50 | 0.052 | –
